Here are results for two molecules from US11224609B2, “Mithramycin derivatives having increased selectivity and anti-cancer activity” (University of Kentucky Research Foundation, priority 2017, dated 2022).

Experiment [1] deals with ES-8 Ewing sarcoma cells (EWS-FLI1 Type 2). Description: 72 h GI50 assay in ES-8. The following applies: read-out: ES-8 EWS-FLI1 Type 2 GI50; 72 h growth inhibition.
Experiment [2] relates to PANC-1 cells. Description: 72 h GI50 assay in PANC-1. The settings on record: read-out: PANC-1 GI50; 72 h growth inhibition.
Experiment [3] relates to A549 cells. Description: 72 h GI50 assay in A549. The settings on record: read-out: A549 GI50; 72 h growth inhibition.
The subject of experiment [4] is PC-3 (prostate cancer, no ETS translocation) cell line. In words: 72 h growth inhibition (GI50) assay in PC-3. The settings on record: read-out: PC-3 Prostate cancer No ETS Translocation GI50; 72 h growth inhibition, PC-3 cells.
Experiment [5] deals with LNCaP cells. Description: 72 h GI50 assay in LNCaP. The following applies: read-out: LNCaP GI50; 72 h growth inhibition.
Experiment [6] relates to TC-71 Ewing sarcoma cells (EWS-FLI1 Type 1). The following applies: 72 h growth inhibition.
Experiment [7] relates to HCT 116 cells. In words: 72 h GI50 assay in HCT 116. The following applies: read-out: HCT 116 GI50; 72 h growth inhibition.
Experiment [8] relates to HeLa cells. In words: 72 h GI50 assay in HeLa. The settings on record: read-out: HeLa GI50; 72 h growth inhibition.

Consider `COC(=O)C(Cc1c[nH]c2ccccc12)NC(=O)C(Cc1ccccc1)NC(=O)C(OC)C1Cc2cc3cc(OC4CC(OC5CC(O)C(O)C(C)O5)C(O)C(C)O4)c(C)c(O)c3c(O)c2C(=O)C1OC1CC(OC2CC(OC3CC(C)(O)C(O)C(C)O3)C(O)C(C)O2)C(O)C(C)O1` (stereo not shown) [Analogue 60, MTMSA-Phe-Trp], for which the GI50 was found to be 53 nM in experiment [1]; 574 nM in experiment [2]; 2850 nM in experiment [3]; 1130 nM in experiment [4]; 1610 nM in experiment [5]; 449 nM in experiment [7]. Besides, in experiment [8], the GI50 was found to be 557 nM. The “TC-71 EWS-FLI1 Type 1 GI50” value in experiment [6] was 44 nM.
On to `COC(=O)C(Cc1c[nH]c2ccccc12)NC(=O)C(Cc1c[nH]c2ccccc12)NC(=O)C(OC)C1Cc2cc3cc(OC4CC(OC5CC(O)C(O)C(C)O5)C(O)C(C)O4)c(C)c(O)c3c(O)c2C(=O)C1OC1CC(OC2CC(OC3CC(C)(O)C(O)C(C)O3)C(O)C(C)O2)C(O)C(C)O1` (stereo not shown) [Analogue 61, MTMSA-Trp-Trp], for which the GI50 in experiment [1] stood at 114 nM; in experiment [2] it was 640 nM; in experiment [3] it was 1400 nM; in experiment [4] it was 568 nM; in experiment [5], 856 nM; in experiment [7] it was 198 nM. Further, the GI50 in experiment [8] stood at 951 nM. The “TC-71 EWS-FLI1 Type 1 GI50” value in experiment [6] came to 35 nM.
